Test results as given in patent US20100298141A1, “SUBSTITUTED PYRIDINE N-OXIDE HERBICIDES” (E. I. DU PONT DE NEMOURS AND COMPANY, priority 2007, published 2010).

Key:
[1] = test system: morningglory; assay: Test A pre-/postemergence greenhouse test; type: in vivo, Ipomoea spp.; settings: for Morningglory plant response rating: 0 to 100 scale
Outline: (§1)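 Greenhouse herbicide screen, pre- and postemergence in parallel. Soil: loam plus sand. Formulation: non-phytotoxic solvent mix with surfactant. Postemergence stage: one to two leaves, 2–10 cm height. Evaluation: visual injury, compared with untreated controls, about 10 days after treatment.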

[2] = test system: redroot pigweed; assay: Test A pre-/postemergence greenhouse test; type: in vivo, Amaranthus retroflexus; settings: for Pigweed plant response rating: 0 to 100 scale
Outline: as §1

[3] = test system: corn; assay: Test A pre-/postemergence greenhouse test; type: in vivo, Zea mays; settings: for Corn plant response rating: 0 to 100 scale
Outline: as §1

[4] = test system: Italian ryegrass; assay: Test C pre-/postemergence test; type: in vivo, Lolium multiflorum; settings: for Plant response rating, Ryegrass, Italian: scale 0 to 100, 0 no effect, 100 complete control
Outline: (§2)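 Seeds were planted and treated preemergence with test chemical in a non-phytotoxic solvent mixture containing surfactant. Postemergence applications of the same formulation went onto plants 2 to 18 cm tall (1- to 4-leaf stage). A dash marks no test result.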

[5] = test system: wheat; assay: Test C pre-/postemergence test; type: in vivo, Triticum aestivum; settings: for Wheat plant response rating: preemergence, scale 0 (no effect) to 100 (complete control); for Plant response rating, Wheat: scale 0 to 100, 0 no effect, 100 complete control
Outline: as §2

[6] = test system: wild oat; assay: Test C pre-/postemergence test; type: in vivo, Avena fatua; settings: for Plant response rating, Oat, Wild: scale 0 to 100, 0 no effect, 100 complete control
Outline: as §2

[7] = test system: bermudagrass; assay: Test C pre-/postemergence test; type: in vivo, Cynodon dactylon; settings: for Plant response rating, Bermudagrass: scale 0 to 100, 0 no effect, 100 complete control
Outline: as §2

[8] = test system: cocklebur; assay: Test C pre-/postemergence test; type: in vivo, Xanthium strumarium; settings: for Plant response rating, Cocklebur: scale 0 to 100, 0 no effect, 100 complete control
Outline: as §2

[9] = test system: corn; assay: Test C pre-/postemergence test; type: in vivo, Zea mays; settings: for Plant response rating, Corn: scale 0 to 100, 0 no effect, 100 complete control
Outline: as §2

[10] = test system: giant foxtail; assay: Test C pre-/postemergence test; type: in vivo, Setaria faberii; settings: for Plant response rating, Foxtail, Giant: scale 0 to 100, 0 no effect, 100 complete control
Outline: as §2

[11] = test system: johnsongrass; assay: Test C pre-/postemergence test; type: in vivo, Sorghum halepense; settings: for Plant response rating, Johnsongrass: scale 0 to 100, 0 no effect, 100 complete control
Outline: as §2

[12] = test system: kochia; assay: Test C pre-/postemergence test; type: in vivo, Kochia scoparia; settings: for Plant response rating, Kochia: scale 0 to 100, 0 no effect, 100 complete control
Outline: as §2

[13] = test system: morningglory; assay: Test C pre-/postemergence test; type: in vivo, Ipomoea coccinea; settings: for Plant response rating, Morningglory: scale 0 to 100, 0 no effect, 100 complete control
Outline: as §2

[14] = test system: eastern black nightshade; assay: Test C pre-/postemergence test; type: in vivo, Solanum ptycanthum
Outline: as §2

[15] = test system: yellow nutsedge; assay: Test C pre-/postemergence test; type: in vivo, Cyperus esculentus; settings: for Plant response rating, Nutsedge, Yellow: scale 0 to 100, 0 no effect, 100 complete control
Outline: as §2

[16] = test system: common (oilseed) sunflower; assay: Test C pre-/postemergence test; type: in vivo, Helianthus annuus; settings: for Sunflower plant response rating: preemergence, scale 0 (no effect) to 100 (complete control)
Outline: as §2

[17] = test system: rice; assay: Test C flooded paddy test; type: in vivo, Oryza sativa; settings: Flood
Outline: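 Under a constant 3 cm flood, test compounds went directly into the paddy water. Following 13 to 15 days of greenhouse growth, treated species and controls were compared by eye.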

[18] = Postemergence, 125 g ai/ha, 0 is no effect, 100 is complete control
[19] = Postemergence, 500 g ai/ha, 0 is no effect, 100 is complete control
[20] = Preemergence, 125 g ai/ha, 0 no effect, 100 complete control
[21] = Preemergence, 500 g ai/ha, 0 to 100 scale where 0 is no effect and 100 is complete control
[22] = 31 g ai/ha, Preemergence, scale 0 to 100
[23] = 62 g ai/ha, preemergence, scale 0 (no effect) to 100 (complete control)
[24] = preemergence, 125 g ai/ha, scale 0 (no effect) to 100 (complete control)

CC(c1c(C(F)(F)F)nn(C)c1OC(F)F)S(=O)(=O)c1cccc[n+]1[O-] (centres unmarked) [Compound 5]
70: Corn plant response rating [3, 19] | Wheat plant response rating ([5]; 125 g ai/ha) | Oat, Wild plant response rating [6, 24] | Plant response rating, Foxtail, Giant ([10]; Postemergence, 250 g ai/ha) | Sunflower plant response rating ([16]; 125 g ai/ha)
30: Corn plant response rating [3, 18] | Plant response rating, Wheat ([5]; Postemergence, 125 g ai/ha) | Plant response rating, Wheat ([5]; Postemergence, 250 g ai/ha) | Plant response rating, Oat, Wild ([6]; Postemergence, 250 g ai/ha)
55: Corn plant response rating [9, 24] | Sunflower plant response rating ([16]; 62 g ai/ha)
80: Pigweed plant response rating [2, 19] | Plant response rating, Corn [3, 21] | Ryegrass, Italian plant response rating [4, 22] | Kochia plant response rating [12, 22] | Nutsedge, Yellow plant response rating [15, 22] | Plant response rating, Rice ([17]; 62 g ai/ha, scale 0 to 100, 0 no effect, 100 complete control, 13 to 15 days)
10: Plant response rating, Cocklebur ([8]; Postemergence, 250 g ai/ha) | Plant response rating, Johnsongrass ([11]; Postemergence, 250 g ai/ha) | Plant response rating, Morningglory ([13]; Postemergence, 125 g ai/ha) | Plant response rating, Morningglory ([13]; Postemergence, 250 g ai/ha) | Plant response rating, Nutsedge, Yellow ([15]; Postemergence, 250 g ai/ha)
85: Morningglory plant response rating [13, 22] | Plant response rating (0 to 100), Sunflower ([16]; Preemergence, 250 g ai/ha) | Plant response rating, Rice ([17]; 125 g ai/ha, scale 0 to 100, 0 no effect, 100 complete control, 13 to 15 days) | Plant response rating, Rice ([17]; 250 g ai/ha, scale 0 to 100 (0 no effect, 100 complete control))
0: Plant response rating (0 to 100), Ryegrass, Italian ([4]; Postemergence, 31 g ai/ha) | Plant response rating (0 to 100), Ryegrass, Italian ([4]; Postemergence, 62 g ai/ha) | Plant response rating (0 to 100), Wheat ([5]; Postemergence, 31 g ai/ha) | Plant response rating (0 to 100), Wheat ([5]; Postemergence, 62 g ai/ha) | Plant response rating (0 to 100), Oat, Wild ([6]; Postemergence, 31 g ai/ha) | Plant response rating, Oat, Wild ([6]; Postemergence, 62 g ai/ha) | Plant response rating, Oat, Wild ([6]; Postemergence, 125 g ai/ha) | Cocklebur plant response rating [8, 22] | Cocklebur plant response rating [8, 23] | Plant response rating (0 to 100), Cocklebur ([8]; Postemergence, 31 g ai/ha) | Plant response rating, Cocklebur ([8]; Postemergence, 62 g ai/ha) | Plant response rating, Cocklebur ([8]; Postemergence, 125 g ai/ha) | Plant response rating (0 to 100), Cocklebur ([8]; Preemergence, 250 g ai/ha) | Cocklebur plant response rating [8, 24] | Corn plant response rating [9, 22] | Plant response rating (0 to 100), Corn ([9]; Postemergence, 31 g ai/ha) | Plant response rating, Corn ([9]; Postemergence, 62 g ai/ha) | Plant response rating, Corn ([9]; Postemergence, 125 g ai/ha) | Plant response rating, Corn ([9]; Postemergence, 250 g ai/ha) | Plant response rating (0 to 100), Foxtail, Giant ([10]; Postemergence, 31 g ai/ha) | Plant response rating (0 to 100), Johnsongrass ([11]; Postemergence, 31 g ai/ha) | Plant response rating, Johnsongrass ([11]; Postemergence, 62 g ai/ha) | Plant response rating, Johnsongrass ([11]; Postemergence, 125 g ai/ha) | Plant response rating (0 to 100), Kochia ([12]; Postemergence, 31 g ai/ha) | Plant response rating, Kochia ([12]; Postemergence, 62 g ai/ha) | Plant response rating, Kochia ([12]; Postemergence, 125 g ai/ha) | Plant response rating, Kochia ([12]; Postemergence, 250 g ai/ha) | Plant response rating (0 to 100), Nutsedge, Yellow ([15]; Postemergence, 31 g ai/ha) | Plant response rating, Nutsedge, Yellow ([15]; Postemergence, 62 g ai/ha) | Plant response rating, Nutsedge, Yellow ([15]; Postemergence, 125 g ai/ha)
75: Plant response rating (0 to 100), Oat, Wild ([6]; Preemergence, 250 g ai/ha)
50: Plant response rating, Ryegrass, Italian ([4]; Postemergence, 250 g ai/ha)
98: Plant response rating (0 to 100), Wheat ([5]; Preemergence, 250 g ai/ha) | Foxtail, Giant plant response rating [10, 24]
20: Corn plant response rating [3, 20] | Wheat plant response rating ([5]; 62 g ai/ha) | Oat, Wild plant response rating [6, 22]
60: Morningglory plant response rating [1, 18] | Pigweed plant response rating [2, 18] | Oat, Wild plant response rating [6, 23] | Plant response rating, Bermudagrass ([7]; Postemergence, 125 g ai/ha) | Plant response rating, Bermudagrass ([7]; Postemergence, 250 g ai/ha)
100: Plant response rating, Morningglory [1, 21] | Pigweed plant response rating [2, 20] | Plant response rating, Pigweed [2, 21] | Ryegrass, Italian plant response rating [4, 23] | Plant response rating (0 to 100), Ryegrass, Italian ([4]; Preemergence, 250 g ai/ha) | Ryegrass, Italian plant response rating [4, 24] | Bermudagrass plant response rating [7, 22] | Bermudagrass plant response rating [7, 23] | Plant response rating (0 to 100), Bermudagrass ([7]; Preemergence, 250 g ai/ha) | Bermudagrass plant response rating [7, 24] | Plant response rating (0 to 100), Foxtail, Giant ([10]; Preemergence, 250 g ai/ha) | Johnsongrass plant response rating [11, 22] | Johnsongrass plant response rating [11, 23] | Plant response rating (0 to 100), Johnsongrass ([11]; Preemergence, 250 g ai/ha) | Johnsongrass plant response rating [11, 24] | Kochia plant response rating [12, 23] | Plant response rating (0 to 100), Kochia ([12]; Preemergence, 250 g ai/ha) | Kochia plant response rating [12, 24] | Morningglory plant response rating [13, 23] | Plant response rating (0 to 100), Morningglory ([13]; Preemergence, 250 g ai/ha) | Morningglory plant response rating [13, 24] | Nightshade plant response rating [14, 22] | Nightshade plant response rating [14, 23] | Plant response rating (0 to 100), Nightshade ([14]; Preemergence, 250 g ai/ha) | Nightshade plant response rating [14, 24] | Plant response rating (0 to 100), Nutsedge, Yellow ([15]; Preemergence, 250 g ai/ha) | Nutsedge, Yellow plant response rating [15, 24]
5: Plant response rating (0 to 100), Bermudagrass ([7]; Postemergence, 31 g ai/ha) | Plant response rating, Foxtail, Giant ([10]; Postemergence, 62 g ai/ha) | Plant response rating (0 to 100), Morningglory ([13]; Postemergence, 31 g ai/ha) | Plant response rating, Morningglory ([13]; Postemergence, 62 g ai/ha)
40: Plant response rating, Ryegrass, Italian ([4]; Postemergence, 125 g ai/ha) | Plant response rating, Bermudagrass ([7]; Postemergence, 62 g ai/ha) | Corn plant response rating [9, 23] | Plant response rating, Foxtail, Giant ([10]; Postemergence, 125 g ai/ha) | Plant response rating, Rice ([17]; 31 g ai/ha, scale 0 to 100 (0 no effect, 100 complete control))
95: Plant response rating (0 to 100), Corn ([9]; Preemergence, 250 g ai/ha) | Foxtail, Giant plant response rating [10, 22] | Foxtail, Giant plant response rating [10, 23] | Nutsedge, Yellow plant response rating [15, 23]
90: Morningglory plant response rating [1, 19] | Morningglory plant response rating [1, 20]
